# Measurements reported in patent US12344597B2, “Alkoxy-substituted pyridinyl derivatives as LPA1 receptor antagonists and their use in the treatment of fibrosis” (IDORSIA PHARMACEUTICALS LTD, priority 2018, dated 2025).
# Molecular target: human LPA1 receptor (Homo sapiens (Human), UniProt Q92633)
# Test: Beta-arrestin recruitment assay to determine IC50 values for human LPAR1
# Assay type: cell-based
# Settings: antagonist mode, Tango EDG2-bla U2OS cells, LPA 18:1 500 nM final
# Description: Beta-Arrestin Recruitment Assay to Determine IC50 Values for Human LPAR1
# The Tango™ EDG2-bla U2OS cells are obtained from Invitrogen. These cells contain the human LPA1 receptor cDNA linked to a TEV protease site and a Gal4-VP16 transcription factor integrated into the Tango™ GPCR-bla U2OS parental cell line. This parental cell line stably expresses a beta-arrestin/TEV protease fusion protein and the beta-lactamase (bla) reporter gene under the control of a UAS response element. Upon LPA (agonist) binding, LPA1 receptor gets activated, leading to arrestin-protease recruitment and proteolytic release of the transcription factor: The transcription factor then regulates transcription of a beta-lactamase reporter construct, which is measured upon addition of the live-cell substrate.
# 10′000 Tango™ EDG2-bla U2OS cells are seeded in a 384-well black with clear bottom plate in 30 μl Freestyle 293 Expression Medium (Invitrogen) and incubated for 20 h at 37° C., 5% CO2. […] IC50 is the concentration of antagonist inhibiting 50% of the maximal response.
# human LPA1 receptor, sequence (Q92633 whole entry): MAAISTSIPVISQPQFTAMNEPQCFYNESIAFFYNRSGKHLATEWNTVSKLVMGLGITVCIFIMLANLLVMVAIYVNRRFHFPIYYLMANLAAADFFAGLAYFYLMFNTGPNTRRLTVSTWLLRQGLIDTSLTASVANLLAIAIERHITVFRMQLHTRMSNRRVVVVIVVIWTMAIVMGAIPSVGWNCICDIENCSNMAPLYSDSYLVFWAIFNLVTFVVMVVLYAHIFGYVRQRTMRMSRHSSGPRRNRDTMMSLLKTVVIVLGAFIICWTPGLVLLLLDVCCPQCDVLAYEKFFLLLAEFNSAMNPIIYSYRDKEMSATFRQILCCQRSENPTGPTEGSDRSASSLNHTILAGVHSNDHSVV
row,IC50 [nM],Compound
1,73,"Cc1ccc(NC(=O)C2(c3ccccc3C(C)C)CN(CC3(CO)COC3)C2)c(OC(F)F)n1 [Ex 11-89, N-(2-(difluoromethoxy)-6-methylpyridin-3-yl)-1-((3-(hydroxymethyl)oxetan-3-yl)methyl)-3-(2-isopropylphenyl)azetidine-3-carboxamide]"
2,34,"COC(=O)C(C)(C)CC(=O)N1CC(C(=O)Nc2ccc(C)nc2OC(F)F)(c2ccccc2C(C)C)C1 [Ex 12-81, methyl 4-(3-((2-(difluoromethoxy)-6-methylpyridin-3-yl)carbamoyl)-3-(2-isopropylphenyl)azetidin-1-yl)-2,2-dimethyl-4-oxobutanoate]"
3,122,N-(2-(difluoromethoxy)-6-methylpyridin-3-yl)-1-(2-(1-(2-hydroxyethyl)piperidin-4-yl)acetyl)-3-(2-isopropylphenyl)azetidine-3-carboxamide [Ex 12-140]
4,4,"Cc1ccc(NC(=O)C2(c3ccccc3C(C)C)CN(C3=NC(=O)CO3)C2)c(OC(F)F)n1 [Ex 19, N-(2-(difluoromethoxy)-6-methylpyridin-3-yl)-3-(2-isopropylphenyl)-1-(4-oxo-4,5-dihydrooxazol-2-yl)azetidine-3-carboxamide]"
5,46,"Cc1ccc(NC(=O)C2(c3ccccc3C(C)C)CN(CCC3(C(=O)O)CCC3)C2)c(OC(F)F)n1 [Ex 11-73, 1-(2-(3-((2-(difluoromethoxy)-6-methylpyridin-3-yl)carbamoyl)-3-(2-isopropylphenyl)azetidin-1-yl)ethyl)cyclobutane-1-carboxylic acid]"
6,10,"CC(C)c1ccccc1C1(C(=O)Nc2cc(F)cnc2OC(F)F)CN(S(N)(=O)=O)C1 [Ex 15-15, N-(2-(difluoromethoxy)-5-fluoropyridin-3-yl)-3-(2-isopropylphenyl)-1-sulfamoylazetidine-3-carboxamide]"
7,8,"COC(=O)CNCC(=O)N1CC(C(=O)Nc2ccc(C)nc2OC(F)F)(c2ccccc2C(C)C)C1 [Ex 56, methyl (2-(3-((2-(difluoromethoxy)-6-methylpyridin-3-yl)carbamoyl)-3-(2-isopropylphenyl)azetidin-1-yl)-2-oxoethyl)glycinate]"
8,56,"COc1ccc(C(C)C)c(C2(C(=O)Nc3ccc(C)nc3OC(F)F)CN(C(=O)CC(C)(C)C(=O)O)C2)c1 [Ex 39-6, 4-(3-((2-(difluoromethoxy)-6-methylpyridin-3-yl)carbamoyl)-3-(2-isopropyl-5-methoxyphenyl)azetidin-1-yl)-2,2-dimethyl-4-oxobutanoic acid]"
9,235,"Cc1ccc(NC(=O)C2(c3ccccc3C3=CCCC3)CNC2)c(OC(F)F)n1 [Ex 26, 3-(2-(cyclopent-1-en-1-yl)phenyl)-N-(2-(difluoromethoxy)-6-methylpyridin-3-yl)azetidine-3-carboxamide]"
10,8,"Cc1ccc(NC(=O)C2(c3ncccc3C(C)C)CN(C(=O)NC3CC3)C2)c(OC(F)F)n1 [Ex 63, N1-cyclopropyl-N3-(2-(difluoromethoxy)-6-methylpyridin-3-yl)-3-(3-isopropylpyridin-2-yl)azetidine-1,3-dicarboxamide]"
11,> 10000,"COc1ncccc1NC(=O)C1(c2ccccc2)CNC1 [Ex 85, N-(2-methoxypyridin-3-yl)-3-phenylazetidine-3-carboxamide, reference compound]"
12,26,"Cc1ccc(NC(=O)C2(c3ccccc3C(C)C)CN(CCNC(=O)CO)C2)c(OC(F)F)n1 [Ex 11-87, N-(2-(difluoromethoxy)-6-methylpyridin-3-yl)-1-(2-(2-hydroxyacetamido)ethyl)-3-(2-isopropylphenyl)azetidine-3-carboxamide]"
13,25,"COC(=O)c1cc(S(=O)(=O)N2CC(C(=O)Nc3ccc(C)nc3OC(F)F)(c3ccccc3C(C)C)C2)on1 [Ex 13-26, methyl 5-((3-((2-(difluoromethoxy)-6-methylpyridin-3-yl)carbamoyl)-3-(2-isopropylphenyl)azetidin-1-yl)sulfonyl)isoxazole-3-carboxylate]"
14,37,"Cc1ccc(NC(=O)C2(c3ncccc3C(C)C)CN(c3nc(C)ccc3F)C2)c(OC(F)F)n1 [Ex 65, N-(2-(difluoromethoxy)-6-methylpyridin-3-yl)-1-(3-fluoro-6-methylpyridin-2-yl)-3-(3-isopropylpyridin-2-yl)azetidine-3-carboxamide]"
15,142,"Cc1ccc(NC(=O)C2(c3ccccc3C(C)C)CN(Cc3cnc(C(=O)O)cn3)C2)c(OC(F)F)n1 [Ex 11-55, 5-((3-((2-(difluoromethoxy)-6-methylpyridin-3-yl)-carbamoyl)3-(2-isopropylphenyl)azetidin-1-yl)methyl)pyrazine-2-carboxylic acid]"
16,10,"Cc1ccc(NC(=O)C2(c3ccccc3C(C)C)CN(S(=O)(=O)CCC(=O)NO)C2)c(OC(F)F)n1 [Ex 13-29, N-(2-(difluoromethoxy)-6-methylpyridin-3-yl)-1-((3-(hydroxyamino)-3-oxopropyl)sulfonyl)-3-(2-isopropylphenyl)azetidine-3-carboxamide]"
17,337,"Cc1ccc(NC(=O)C2(c3ccccc3C(C)C)CN(C(=O)CC3CCN(C)CC3)C2)c(OC(F)F)n1 [Ex 12-31, N-(2-(difluoromethoxy)-6-methylpyridin-3-yl)-3-(2-isopropylphenyl)-1-(2-(1-methylpiperidin-4-yl)acetyl)azetidine-3-carboxamide]"
18,7,"COC(=O)CS(=O)(=O)N1CCC(C(=O)Nc2ccc(C)nc2OC(F)F)(c2ccccc2C(C)C)CC1 [Ex 13-2, methyl 2-((4-((2-(difluoromethoxy)-6-methylpyridin-3-yl)carbamoyl)-4-(2-isopropylphenyl)piperidin-1-yl)sulfonyl)acetate]"
19,69,"COCCN(CC(=O)OC)CC(=O)N1CC(C(=O)Nc2ccc(C)nc2OC(F)F)(c2ccccc2C(C)C)C1 [Ex 54, methyl N-(2-(3-((2-(difluoromethoxy)-6-methylpyridin-3-yl)carbamoyl)-3-(2-isopropylphenyl)azetidin-1-yl)-2-oxoethyl)-N-(2-methoxyethyl)glycinate]"
20,304,"COC(=O)Cn1cc(CN2CC(C(=O)Nc3ccc(C)nc3OC(F)F)(c3ccccc3C(C)C)C2)nn1 [Ex 11-48, methyl 2-(4-((3-((2-(difluoromethoxy)-6-methylpyridin-3-yl)carbamoyl)-3-(2-isopropylphenyl)azetidin-1-yl)methyl)-1H-1,2,3-triazol-1-yl)acetate]"
21,80,"Cc1ccc(NC(=O)C2(c3ccccc3C(C)C)CN(C(=O)[C@@H]3CCC[C@H](C(=O)O)C3)C2)c(OC(F)F)n1 [Ex 51, (1S,3R)-3-(3-((2-(difluoromethoxy)-6-methylpyridin-3-yl)carbamoyl)-3-(2-isopropylphenyl)azetidine-1-carbonyl)cyclohexane-1-carboxylic acid]"
22,142,"Cc1ccc(C(C)C)c(C2(C(=O)Nc3ccc(C)nc3OC(F)F)CNC2)c1 [Ex 34, N-(2-(difluoromethoxy)-6-methylpyridin-3-yl)-3-(2-isopropyl-5-methylphenyl)azetidine-3-carboxamide]"
23,10,"COC(=O)c1ccc(N2CC(C(=O)Nc3ccc(C)nc3OC(F)F)(c3ccccc3C(C)C)C2)nn1 [Ex 18-6, methyl 6-(3-((2-(difluoromethoxy)-6-methylpyridin-3-yl)carbamoyl)-3-(2-isopropylphenyl)azetidin-1-yl)pyridazine-3-carboxylate]"
24,28,"COC(CC(=O)O)S(=O)(=O)N1CC(C(=O)Nc2ccc(C)nc2OC(F)F)(c2ccccc2C(C)C)C1 (stereo not drawn) [Ex 13-27, 3-((3-((2-(difluoromethoxy)-6-methylpyridin-3-yl)carbamoyl)-3-(2-isopropylphenyl)azetidin-1-yl)sulfonyl)-3-methoxypropanoic acid]"
25,7,"Cc1ccc(NC(=O)C2(c3ccccc3C(C)C)CN(C(=O)C[C@](C)(O)C(=O)O)C2)c(OC(F)F)n1 [Ex 12-117, (S)-4-(3-((2-(difluoromethoxy)-6-methylpyridin-3-yl)carbamoyl)-3-(2-isopropylphenyl)azetidin-1-yl)-2-hydroxy-2-methyl-4-oxobutanoic acid]"
26,310,"COC(=O)c1ccc(CN2CC(C(=O)Nc3ccc(C)nc3OC(F)F)(c3ccccc3C(C)C)C2)[nH]1 [Ex 11-43, methyl 5-((3-((2-(difluoromethoxy)-6-methylpyridin-3-yl)carbamoyl)-3-(2-isopropylphenyl)azetidin-1-yl)methyl)-1H-pyrrole-2-carboxylate]"
27,59,"COCCN(CC(=O)N1CCC(C(=O)Nc2ccc(C)nc2OC(F)F)(c2ccccc2C(C)C)CC1)C(=O)OC(C)(C)C [Ex 12-47, tert-butyl (2-(4-((2-(difluoromethoxy)-6-methylpyridin-3-yl)carbamoyl)-4-(2-isopropylphenyl)piperidin-1-yl)-2-oxoethyl)(2-methoxyethyl)carbamate]"
28,22,"Cc1ccc(NC(=O)C2(c3ccccc3C(C)C)CN(CC(N)=O)C2)c(OC(F)F)n1 [Ex 11-15, 1-(2-amino-2-oxoethyl)-N-(2-(difluoromethoxy)-6-methylpyridin-3-yl)-3-(2-isopropylphenyl)azetidine-3-carboxamide]"
29,31,"Cc1ccc(NC(=O)C2(c3ccccc3C3CCC3)CNC2)c(OC(F)F)n1 [Ex 24, 3-(2-cyclobutylphenyl)-N-(2-(difluoromethoxy)-6-methylpyridin-3-yl)azetidine-3-carboxamide]"
30,20,"CC(C)c1ccccc1C1(C(=O)Nc2cccnc2OC(F)F)CN(S(=O)(=O)CCC(=O)O)C1 [Ex 13-10, 3-((3-((2-(difluoromethoxy)pyridin-3-yl)carbamoyl)-3-(2-isopropylphenyl)azetidin-1-yl)sulfonyl)propanoic acid]"
